Measurements published in ChEMBL document CHEMBL1126580, “Enantiospecific syntheses of alpha-(fluoromethyl)tryptophan analogues: interactions with tryptophan hydroxylase and aromatic L-amino acid decarboxylase” (J Med Chem, 1993).

Target: T1, Aromatic-L-amino-acid decarboxylase (Mus musculus, UniProt O88533)
T1 sequence (O88533 whole entry): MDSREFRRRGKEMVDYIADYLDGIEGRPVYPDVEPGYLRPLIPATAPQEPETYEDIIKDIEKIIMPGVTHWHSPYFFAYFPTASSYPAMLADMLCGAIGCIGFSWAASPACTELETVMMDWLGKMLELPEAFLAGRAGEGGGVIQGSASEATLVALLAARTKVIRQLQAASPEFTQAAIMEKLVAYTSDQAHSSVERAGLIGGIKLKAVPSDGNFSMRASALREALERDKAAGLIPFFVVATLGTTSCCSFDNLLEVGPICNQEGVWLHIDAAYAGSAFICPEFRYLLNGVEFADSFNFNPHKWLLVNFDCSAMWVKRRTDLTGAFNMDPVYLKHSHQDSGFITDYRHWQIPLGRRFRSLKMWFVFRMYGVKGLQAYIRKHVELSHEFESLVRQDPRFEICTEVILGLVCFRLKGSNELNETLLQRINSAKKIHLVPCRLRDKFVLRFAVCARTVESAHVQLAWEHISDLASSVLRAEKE
Assay: Dissociation constant (KI) was evaluated as inhibitor of murine liver aromatic L-amino acid decarboxylase (AADC)

Ki: 24.3 µM
SMILES: N[C@@](CF)(Cc1c[nH]c2ccc(O)cc12)C(=O)O
